# Patent publication US12344603B2 (Genentech, Inc., priority 2020, dated 2025)
# pIC50: −log10 of the molar value. Structures can show the parent of a compound that is named as a salt.
# Biological target: IRE1α (Homo sapiens (Human), UniProt O75460, D688N)
# Test: IRE1α TR-FRET competition binding assay (IRE1α HTRF)
# Conditions: TR-FRET competition binding to kinase domain of IRE1α
# In short: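 Competition of compounds against an Alexa fluor 647 ATP-site probe (2 nM final) for the His-tagged kinase domain (0.25 nM final), detected via 2 nM Eu anti-His antibody by TR-FRET, 665 and 615 nm emission. Protein–antibody premix 1 h, 4° C; reaction 1 h, room temperature, pH 7.5 HEPES buffer.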
# IRE1α, sequence (O75460 547-977 D688N): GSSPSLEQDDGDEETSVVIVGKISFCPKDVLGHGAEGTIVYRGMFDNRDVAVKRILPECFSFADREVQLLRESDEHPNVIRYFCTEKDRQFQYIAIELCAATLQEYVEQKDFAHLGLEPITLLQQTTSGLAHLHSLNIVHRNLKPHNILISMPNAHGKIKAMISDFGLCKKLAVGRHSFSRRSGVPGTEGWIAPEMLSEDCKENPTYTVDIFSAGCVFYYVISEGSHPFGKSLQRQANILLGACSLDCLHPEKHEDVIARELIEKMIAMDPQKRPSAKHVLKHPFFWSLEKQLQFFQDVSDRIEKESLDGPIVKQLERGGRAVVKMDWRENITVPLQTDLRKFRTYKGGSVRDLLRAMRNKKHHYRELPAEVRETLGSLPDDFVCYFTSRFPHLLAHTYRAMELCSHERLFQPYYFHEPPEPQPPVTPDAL
row,pIC50,Structure (SMILES)
1,8.44,"CC(n1c(=O)c(-c2ccc(NS(=O)(=O)Cc3ccccc3)c(F)c2F)cc2cnc(N[C@@H]3CNC[C@@H](F)C3)nc21)C(F)(F)F (stereo partly drawn) [Compound 42, N-(2,3-difluoro-4-(2-(((3S,5S)-5-fluoropiperidin-3-yl)amino)-7-oxo-8-(1,1,1-trifluoropropan-2-yl)-7,8-dihydropyrido[2,3-d]pyrimidin-6-yl)phenyl)-1-phenylmethanesulfonamide trifluoroacetate salt]"
2,9.15,"CC(C)n1c(=O)c(-c2ccc(NS(=O)(=O)Cc3ccccc3)c(F)c2F)nc2cnc(N[C@@H]3CNC[C@@H](F)C3)nc21 [Compound 43, N-(2,3-Difluoro-4-(2-(((3S,5S)-5-fluoropiperidin-3-yl)amino)-8-isopropyl-7-oxo-7,8-dihydropteridin-6-yl)phenyl)-1-phenylmethanesulfonamide]"
3,9.55,"CC(C)n1c(=O)c(-c2ccc(NS(=O)(=O)Cc3ccccc3)c(F)c2)nc2cnc(N[C@@H]3CNC[C@@H](F)C3)nc21 [Compound 44, N-(2-Fluoro-4-(2-(((3S,5S)-5-fluoropiperidin-3-yl)amino)-8-isopropyl-7-oxo-7,8-dihydropteridin-6-yl)phenyl)-1-phenylmethanesulfonamide]"
4,9.66,"CC(C)n1c(=O)c(-c2cc(F)c(NS(=O)(=O)Cc3ccccc3)c(F)c2)nc2cnc(N[C@@H]3CNC[C@@H](F)C3)nc21 [Compound 45, N-(2,6-Difluoro-4-(2-(((3S,5S)-5-fluoropiperidin-3-yl)amino)-8-isopropyl-7-oxo-7,8-dihydropteridin-6-yl)phenyl)-1-phenylmethanesulfonamide]"
5,9.33,"CC(C)n1c(=O)c(-c2cc(F)c(NS(=O)(=O)CCC(F)(F)F)c(F)c2)nc2cnc(N[C@@H]3CNC[C@@H](F)C3)nc21 [Compound 46, N-(2,6-Difluoro-4-(2-(((3S,5S)-5-fluoropiperidin-3-yl)amino)-8-isopropyl-7-oxo-7,8-dihydropteridin-6-yl)phenyl)-3,3,3-trifluoropropane-1-sulfonamide]"
6,9.43,"CCn1c(=O)c(-c2cc(F)c(NS(=O)(=O)Cc3ccc(C#N)cc3)c(F)c2F)cc2cnc(N[C@@H]3CNC[C@@H](F)C3)nc21 [Compound 47, 1-(4-cyanophenyl)-N-(4-(8-ethyl-2-(((3S,5S)-5-fluoropiperidin-3-yl)amino)-7-oxo-7,8-dihydropyrido[2,3-d]pyrimidin-6-yl)-2,3,6-trifluorophenyl)methanesulfonamide]"
7,7.55,"CCn1c(=O)c(-c2cc(F)c(NS(=O)(=O)CC3(F)CC3)c(F)c2F)cc2cnc(N[C@@H]3CNC[C@@H](F)C3)nc21 [Compound 48, N-(4-(8-ethyl-2-(((3S,5S)-5-fluoropiperidin-3-yl)amino)-7-oxo-7,8-dihydropyrido[2,3-d]pyrimidin-6-yl)-2,3,6-trifluorophenyl)-1-(1-fluorocyclopropyl)methanesulfonamide]"
8,8.30,"CCn1c(=O)c(-c2cc(F)c(NS(=O)(=O)Cc3ccccn3)c(F)c2F)cc2cnc(N[C@@H]3CNC[C@@H](F)C3)nc21 [Compound 49, N-(4-(8-ethyl-2-(((3S,5S)-5-fluoropiperidin-3-yl)amino)-7-oxo-7,8-dihydropyrido[2,3-d]pyrimidin-6-yl)-2,3,6-trifluorophenyl)-1-(pyridin-2-yl)methanesulfonamide]"
9,9.66,"CCn1c(=O)c(-c2cc(F)c(NS(=O)(=O)Cc3ccc(C(F)(F)F)cc3)c(F)c2F)cc2cnc(N[C@@H]3CNC[C@@H](F)C3)nc21 [Compound 50, N-(4-(8-ethyl-2-(((3S,5S)-5-fluoropiperidin-3-yl)amino)-7-oxo-7,8-dihydropyrido[2,3-d]pyrimidin-6-yl)-2,3,6-trifluorophenyl)-1-(4-(trifluoromethyl)phenyl)methanesulfonamide hydrochloride]"
10,9.15,"CCn1c(=O)c(-c2cc(F)c(NS(=O)(=O)Cc3c(F)cccc3F)c(F)c2F)cc2cnc(N[C@@H]3CNC[C@@H](F)C3)nc21 [Compound 51, 1-(2,6-difluorophenyl)-N-(4-(8-ethyl-2-(((3S,5S)-5-fluoropiperidin-3-yl)amino)-7-oxo-7,8-dihydropyrido[2,3-d]pyrimidin-6-yl)-2,3,6-trifluorophenyl)methanesulfonamide]"
11,9.10,"O=c1c(-c2ccc(NS(=O)(=O)Cc3ccccc3)c(F)c2F)cc2cnc(N[C@@H]3CNC[C@@H](F)C3)nc2n1CC1CC1 [Compound 52, N-(4-(8-(cyclopropylmethyl)-2-(((3S,5S)-5-fluoropiperidin-3-yl)amino)-7-oxo-7,8-dihydropyrido[2,3-d]pyrimidin-6-yl)-2,3-difluorophenyl)-1-phenylmethanesulfonamide trifluoroacetate salt]"
12,9.15,"O=c1c(-c2ccc(NS(=O)(=O)Cc3ccccc3)c(F)c2F)cc2cnc(N[C@@H]3CNC[C@@H](F)C3)nc2n1CCF [Compound 53, N-(2,3-Difluoro-4-(8-(2-fluoroethyl)-2-(((3S,5S)-5-fluoropiperidin-3-yl)amino)-7-oxo-7,8-dihydropyrido[2,3-d]pyrimidin-6-yl)phenyl)-1-phenylmethanesulfonamide]"
13,9.47,"CC(C)n1c(=O)c(-c2cc(F)c(NS(=O)(=O)c3ccccc3)c(F)c2F)cc2cnc(N[C@@H]3CNC[C@@H](F)C3)nc21 [Compound 54, N-(2,3,6-Trifluoro-4-(2-(((3S,5S)-5-fluoropiperidin-3-yl)amino)-8-isopropyl-7-oxo-7,8-dihydropyrido[2,3-d]pyrimidin-6-yl)phenyl)benzenesulfonamide]"
14,9.38,"O=c1c(-c2cc(F)c(NS(=O)(=O)Cc3ccccc3)c(F)c2F)cc2cnc(N[C@@H]3CNC[C@@H](F)C3)nc2n1C1CC(F)(F)C1 [Compound 55, N-(4-(8-(3,3-Difluorocyclobutyl)-2-(((3S,5S)-5-fluoropiperidin-3-yl)amino)-7-oxo-7,8-dihydropyrido[2,3-d]pyrimidin-6-yl)-2,3,6-trifluorophenyl)-1-phenylmethanesulfonamide hydrochloride]"
15,9.77,"CC(C)n1c(=O)c(-c2cc(F)c(NS(=O)(=O)Cc3ccccc3)c(F)c2F)cc2cnc(N[C@H]3CC[C@H](N)CC3)nc21 [Compound 56, N-(4-(2-(((1r,4r)-4-Aminocyclohexyl)amino)-8-isopropyl-7-oxo-7,8-dihydropyrido[2,3-d]pyrimidin-6-yl)-2,3,6-trifluorophenyl)-1-phenylmethanesulfonamide]"
16,9.85,"COc1ccc(CS(=O)(=O)Nc2c(F)cc(-c3cc4cnc(N[C@@H]5CNC[C@@H](F)C5)nc4n(C(C)C)c3=O)c(F)c2F)cc1 [Compound 57, 1-(4-Methoxyphenyl)-N-(2,3,6-trifluoro-4-(2-(((3S,5S)-5-fluoropiperidin-3-yl)amino)-8-isopropyl-7-oxo-7,8-dihydropyrido[2,3-d]pyrimidin-6-yl)phenyl)methanesulfonamide]"
17,8.24,"CC1CC1C(=O)Nc1c(F)cc(-c2cc3cnc(N[C@H]4CC[C@H](N(C)C)CC4)nc3n(C(C)C)c2=O)c(F)c1F (stereo partly drawn) [Compound 58, (1S,2R)—N-(4-(2-(((1r,4r)-4-(dimethylamino)cyclohexyl)amino)-8-isopropyl-7-oxo-7,8-dihydropyrido[2,3-d]pyrimidin-6-yl)-2,3,6-trifluorophenyl)-2-methylcyclopropane-1-carboxamide]"
